From patent US20120245229A1, “METHOD FOR TREATING NEUROPATHIC PAIN” (priority 2009, published 2012) come the findings set out here.

The subject of one assay is ERK phosphorylation. Nature of the assay: ERK phosphorylation (pERK) in superficial dorsal horn neurons of spinal slices. As to conditions: TNF-α 10 ng/ml, 5 min. Format: cell-based, mice. Here is the method: (§1) Spinal cord slice preparation. As previously reported^39, a portion of the lumbar spinal cord (L4-L5) was removed from young mice (3-4 week old) under urethane anesthesia (1.5-2.0 g/kg, i.p.) and transverse spinal cord slices were cut (600 μm) on a vibrating microslicer. The slices were perfused with Kreb's solution (8 ml/min) for >2 h prior to experiments. Some slices were stimulated with TNF-α (10 ng/ml, 5 min), the slices were fixed with 4% paraformaldehyde for 1 h, and processed pERK immunohistochemistry using thin sections (15 μm)^13.
Resolvins were also used for intraplantar injection. RvD1 or RvE1 was injected into the plantar surface of a hindapaw [20 ng, 20 μl , in 1% ethanol (Supplementary FIG. 5a, 5b) or in 10% ethanol (FIG. 2e, Supplementary FIG. 1d)]. […]
PERK immunohistochemistry in the spinal cord: Transverse spinal cord slices (600 μm) were cut on a vibrating microslicer. […] The stained sections were examined with a Nikon fluorescence microscope, and images were captured with a CCD Spot camera. The number of pERK-immunoreactive cells in the superficial dorsal horn (laminae I-III) was quantified in 5 spinal cord sections from each slice and averaged for that slice, and 4-5 slices from separate animals were included for data analysis^12.

For assay [1], the system named is proinflammatory cytokines (TNF-α, IL-1β, IL-6) and chemokines (MCP-1, MIP-1α). Nature of the assay: Cytokine array of inflamed hindpaw skin after carrageenan. Format: in vivo, mouse. The conditions noted are these: intraplantar RvE1 20 ng prior to CRG; 2 h after CRG. Here is the method: The mouse cytokine array kits were purchased from R&D. Protein samples were prepared in the same way as for Western blotting analysis. Each reaction was performed according to manufacturer's protocol using 400 μg proteins. In brief, protein samples were incubated with a blot (array) that is pre-coated with 40 cytokines/chemokines for 24 h at 4° C. The remaining procedures were similar to that of Western blotting. Also see Gao et al., 2009^12.

The subject of another assay is lamina II neurons. Nature of the assay: Patch clamp recording of sEPSCs in lamina II neurons of spinal cord slices. Format: cell-based, mice. Here is the method: as §1
Patch clamp recordings in spinal slices. Whole cell patch-clamp recordings were performed in lamina II neurons in voltage clamp mode^39. After establishing the whole-cell configuration, neurons were held at the holding potentials of −70 mV for recording spontaneous excitatory postsynaptic current (sEPSC). NMDA-induced currents were recorded by bath application of NMDA (50 μM, Sigma) at the holding potential of −50 mV. Membrane currents were amplified with an Axopatch 200A amplifier (Axon Instruments) in voltage-clamp mode. pCLAMP 6 was used and Mini Analysis (Synaptosoft Inc.) software to store and analyze the data. Those cells showing >5% changes from the baseline levels were reagrded as responding ones^24.
Resolvins were also used for intraplantar injection. RvD1 or RvE1 was injected into the plantar surface of a hindapaw [20 ng, 20 μl , in 1% ethanol (Supplementary FIG. 5a, 5b) or in 10% ethanol (FIG. 2e, Supplementary FIG. 1d)]. DRG cultures were incubated with RvE1 (10 ng/ml, 0.1% ethanol in culture medium) and perfused spinal cord slices with RvE1 (1 ng/ml, in 0.01% ethanol and Kreb's solution).
Perfusion of spinal cord slices: Spinal cord slices were incubated with chemerin (100 ng/ml, in Kreb's solution), TNF-α (10 ng/ml, in Kreb's solution), capsaicin (100 nM, in 0.01% DMSO and Kreb's solution), TRPV1 antagonist capsazepine (Sigma, 10 μM, in 0.01% DMSO and Kreb's solution), pertussix toxin (0.5 μg/ml, in Kreb's solution), and MEK inhibitor PD98059 and U0126 (CalBiochem, 1 μM, in 0.01% DMSO and Kreb's solution). For pertussix toxin treatment, spinal cord slices were incubated with the toxin for 3 h before stimulation.

A further assay has as its system naïve mice. Nature of the assay: Basal pain thresholds in naive mice. It is filed as in vivo. As to conditions: intrathecal. On the procedure: (§2) Behavioral analysis. Mice were habituated in the testing environment for two days and performed behavioral testing in a blinded manner. Formalin-evoked spontaneous inflammatory pain was assessed by measuring duration (seconds) animals spent on licking/flinching the affected paws every 5 min for 45 min. Capsaicin-induced spontaneous pain was aslo assessed for 10 min. For testing mechanical sensitivity, mice were put in boxes on an elevated metal mesh floor and stimulated hindpaw with a series of von Frey hairs with logarithmically incrementing stiffness (0.02-2.56 grams, Stoelting), presented perpendicular to the plantar surface. It was determined the 50% paw withdrawal threshold using Dixon's up-down method^40. For testing heat sensitivity, mice were placed in plastic boxes and tested heat sensitivity using Hargreaves radiant heat apparatus (IITC Life Science Inc.). The basal paw withdrawal latency was adjusted to 9-12 seconds and set a cut-off of 20 seconds to prevent tissue damage. The percent maximal possible antinociceptive effect (% M.P.E) was calculated using the equation % M.P.E.=[(PL−BL2)/(BL1−BL2)]×100. BL1, baseline latency before inflammation; BL2, baseline latency after inflammation but before drug injection; PL, latency post drug injection.

For assay [2], the system named is intrathecal TNF-α-induced hypersensitivity. Nature of the assay: Intrathecal TNF-α-induced heat hyperalgesia and mechanical allodynia. It is filed as in vivo, mice. Here is the method:
as §2, with “The percent maximal possible antinociceptive effect (% M.P.E) was calculated using the equation % M.P.E.=[(PL−BL2)/(BL1−BL2)]×100.” left out, “injection. Intrathecal injection: […] To examine whether pretreatment of RvE1 attenuates capsaicin-induced acute spontaneous pain, RvE1 and capsaicin were mixed and injected at the same time (FIG. 3f).” for “injection.”

With `CC[C@@H](O)/C=C/C=C\C[C@@H](O)/C=C/C=C/C=C\[C@@H](O)CCCC(=O)O` [RvE1, 5S,12R,18R-trihydroxyeicosapentaenoic acid], the “TNF-α-induced ERK phosphorylation in superficial dorsal horn neurons” value in the assay with ERK phosphorylation is “reduced the phosphorylation”. Further, the “expression of proinflammatory cytokines (TNF-α, IL-1β, IL-6) and chemokines (MCP-1, MIP-1α) in inflamed hindpaws” value in assay [1] is given as “reducing”. The “capsaicin-induced increases in sEPSC frequency after pretreatment with pertussis toxin” value in the assay with lamina II neurons (PTX 0.5 μg/ml for 3 h before capsaicin stimulation) is recorded as “fails to inhibit”. In the assay with lamina II neurons (RvE1 alone, 1 ng/ml perfusion), the “basal synaptic transmission (sEPSC)” value is on record as “did not alter basal synaptic transmission”. Also, the “TNF-α-evoked sEPSC frequency increase” value in the assay with lamina II neurons (TNF-α 10 ng/ml, RvE1 1 ng/ml, capsazepine 10 μM) was “blocked”. Besides, in the assay on lamina II neurons (capsaicin 100 nM, RvE1 1 ng/ml, chemerin 100 ng/ml, PD98059 and U0126 1 μM), the “capsaicin-evoked sEPSC frequency increase” value is recorded as “completely blocked”. Moreover, the baseline sensory thresholds entry in the assay on naïve mice is given as “did not alter baseline sensory thresholds”. In addition, the “mechanical allodynia induced by TNF-α” value in assay [2] (intrathecal RvE1 pretreatment) was “attenuated”. For the same molecule, the TNF-α-induced heat hyperalgesia entry in assay [2] (spinal (intrathecal) RvE1 mixed with TNF-α 20 ng) was “substantially reduced”.
